Laboratory results reported in US8383657B2, “Thiazolylidine urea and amide derivatives and methods of use thereof” (Abbott Laboratories, priority 2007, dated 2013).

Legend:
Type in all cases: cell-based
α7 NNRs [1] = molecular target: T1, α7 NNRs (Homo sapiens, UniProt P36544); assay: High-throughput calcium flux (FLIPR) assay using IMR-32 cells expressing endogenous α7 NNRs; set-up: Emax: dose or concentration left out as unconfirmed
T1 construct: using cells natively expressing α7 NNRs; host or cells: IMR-32 neuroblastoma cells
T1 sequence (P36544 23-502): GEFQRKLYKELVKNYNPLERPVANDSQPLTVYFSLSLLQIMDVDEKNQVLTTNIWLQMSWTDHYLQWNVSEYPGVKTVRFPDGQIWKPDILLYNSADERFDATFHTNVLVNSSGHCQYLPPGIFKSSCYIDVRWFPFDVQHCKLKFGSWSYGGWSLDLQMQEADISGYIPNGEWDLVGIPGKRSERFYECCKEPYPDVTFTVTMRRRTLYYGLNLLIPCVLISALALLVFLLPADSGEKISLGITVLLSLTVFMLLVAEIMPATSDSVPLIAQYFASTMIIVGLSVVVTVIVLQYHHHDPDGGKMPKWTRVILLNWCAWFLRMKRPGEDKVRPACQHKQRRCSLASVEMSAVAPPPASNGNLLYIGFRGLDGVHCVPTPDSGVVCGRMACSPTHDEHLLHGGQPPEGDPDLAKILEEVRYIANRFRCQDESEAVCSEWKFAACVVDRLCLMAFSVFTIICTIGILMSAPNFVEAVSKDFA
Protocol: (ii) High-Throughput Calcium Flux Assays Using Cells Expressing Endogenous α7 NNRs
IMR-32 neuroblastoma cells (ATCC) were grown to confluency in 162 cm^2 tissue culture flasks in minimum essential media supplemented with 10% FBS and 1 mM sodium pyruvate, 0.1 mM non-essential amino acids and 1% antibiotic-antimycotic. The cells were then dissociated using cell dissociation buffer and 40 μl of 3.5×10^5 cells/ml cell suspension was plated (about 15,000 cells/well) into black plates with clear bottom and maintained for 48 hours in a tissue culture incubator at 37° C. under an atmosphere of 5% CO2: 95% air. […] Calcium flux was measured using calcium-3 assay kit (Molecular Devices, Sunnyvale, Calif.) or fluo-4. A stock solution of the dye was prepared by dissolving each vial supplied by the vendor in Hank's balanced salt solution buffer (HBSS) containing 20 mM HEPES. The stock solution was diluted 1:20 using the same buffer before use. After removing the growth media, the cells were loaded with 45 μl of the dye and incubated at room temperature for three hours. Fluorescence measurements were read simultaneously from all the wells by a Fluorometric Imaging Plate Reader (FLIPR) at an excitation wavelength of 480 nm and an emission wavelength of 520 nm. Baseline fluorescence was measured for the first 10 seconds at which 5× concentrations of modulator/test compounds were added to the cell plate and incubated for three minutes. The fluorescence intensity was captured every second for the first 1 minute followed by every 5 seconds for an additional 2 minutes. This procedure was followed by 20 μl of 4× concentration of agonist and readings were taken for a period of three minutes as described above. […] The concentration dependence of changes fluorescence responses was fitted by nonlinear regression analysis (GraphPad Prism, San Diego, Calif.) to obtain EC50 values.
PAMs were identified by measuring fluorescence changes to intracellular calcium in a fluorometric plate reader in the presence of selective α7 NNR agonists using cells natively expressing α7 NNRs. […]

α7 NNRs [2] = molecular target: T2, α7 NNRs (Rattus norvegicus, UniProt Q05941); assay: High-throughput ERK phosphorylation assay (in-cell western) using PC-12 cells expressing endogenous α7 NNRs
T2 construct: host or cells: PC-12 rat pheochromocytoma cells
T2 sequence (Q05941 23-502): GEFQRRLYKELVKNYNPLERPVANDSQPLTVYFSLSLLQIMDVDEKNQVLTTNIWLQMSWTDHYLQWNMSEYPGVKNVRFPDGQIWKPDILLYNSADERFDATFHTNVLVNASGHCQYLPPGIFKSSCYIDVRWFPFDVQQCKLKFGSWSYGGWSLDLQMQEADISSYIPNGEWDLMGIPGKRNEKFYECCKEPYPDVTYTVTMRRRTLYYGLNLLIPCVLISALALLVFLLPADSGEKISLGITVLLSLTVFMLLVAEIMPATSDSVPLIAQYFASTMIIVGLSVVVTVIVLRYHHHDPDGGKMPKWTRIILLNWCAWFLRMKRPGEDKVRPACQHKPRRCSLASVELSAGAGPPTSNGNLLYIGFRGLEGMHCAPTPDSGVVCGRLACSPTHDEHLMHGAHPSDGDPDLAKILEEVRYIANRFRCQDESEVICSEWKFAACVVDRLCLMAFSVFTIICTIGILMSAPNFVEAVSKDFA
Protocol: (iii) High-Throughput ERK Phosphorylation Assays Using Cells Expressing Endogenous α7 NNRs
Rat pheochromocytoma (PC-12) cells (ATCC, Manassas, Va.) were cultured and maintained in F-12K media supplemented with 15% horse serum, 2.5% fetal calf serum, and 2 mM L-glutamine in poly-D lysine coated dishes at 37° C. and 5% CO2. Cells were plated in black-walled clear bottom 96-well Biocoat™ plates coated with poly-D-lysine (BD Biosciences, Bedford, Mass.) and grown for 2-3 days. Afterward, the culture media is replaced with serum-free media to starve cells overnight. On the day of the assay, cell media was removed and cells (60-80% confluent) were treated with agonist and/or modulator in Dulbecco's phosphate buffer saline (D-PBS) (with Ca^2+, Mg^2+, and 1 mg/ml D-glucose), as indicated in the result section.
PC-12 cells are treated for 10 minutes at 37° C. with test PAM compounds and then challenged with a selective α7 agonist for 5 minutes at 37° C. in a final volume of 100 μl/well, unless otherwise indicated. After treatment, media was discarded and adherent cells were immediately fixed in the presence of 150 μl/well of 3.7% formaldehyde/phosphate-buffered saline for 30-60 minutes at room temperature. […] Well intensities were quantitated and phospho-ERK signals were normalized to total ERK signals by the Odyssey software. […]

human α7 NNR = molecular target: T3, human α7 NNR (Homo sapiens, UniProt P36544); assay: Two-electrode voltage-clamp in Xenopus laevis oocytes: potentiation of ACh-evoked α7 currents; conditions: FIG. 1A
T3 construct: expressed in transfected cells; host or cells: Xenopus laevis oocytes injected with cRNA
T3 sequence (P36544 23-502): as the sequence (P36544 23-502) above
Protocol: (i) Two-Electrode Voltage-Clamp in Xenopus laevis Oocytes.
X. laevis oocytes were prepared for electrophysiological experiments as described in the literature (see for example, Briggs, C. A., Mckenna, D. G., and Piattina-kaplan, M., Human α7 nicotinic acetylcholine receptor responses to novel ligands, Neuropharmacology, 1995, 34: 583-590; Briggs, C. A., and Mckenna, D. G., Activation and inhibition of the human α7 nicotinic acetylcholine receptor by agonists, Neuropharmacology, 1998, 37: 1095-1102). […] Responses were measured by two-electrode voltage clamp using parallel oocyte electrophysiology test station (Abbott, Abbott Park, Ill.) (see for example, Trumbull, J. D., Maslana, E. S., McKenna, D. G., Nemcek, T. A., Niforatos, W., Pan, J. Y., Parihar, A. S., Shieh, C. C., Wilkins, J. A., Briggs, C. A., and Bertrand, D., High throughput electrophysiology using a fully automated, multiplexed recording system, Receptors Channels, 2003, 9: 19-28). […] The data were expressed as percentage potentiation over the response to 0.1 mM ACh alone. […]

Compound	effect on calcium response to agonist plus modulator (α7 NNRs [1]; IMR-32 cells, α7 selective antagonist)	EC50 (α7 NNRs [2]; FIG. 1C, PC-12 cells, α7 selective agonist PNU-282987) [µM]	Emax (α7 NNRs [2]; PC-12, read-out: maximal efficacy) [%]	EC50 (α7 NNRs [1]; FIG. 1B, IMR-32 cells, agonist 4-(5-phenyl-[1,3,4]oxadiazol-2-yl)-1,4-diaza-bicyclo[3.2.2]nonane at 10 μM, read-out: EC50 value, calcium fluorescence response) [µM]	Emax (α7 NNRs [1]; IMR-32, read-out: maximal effects, normalized change in fluorescence) [%]	EC50 (human α7 NNR; 0.1 mM ACh, oocytes injected with human α7 NNR cRNA, read-out: EC50 value, potentiating 0.1 mM ACh-evoked α7 currents in oocytes) [µM]	degree of potentiation (human α7 NNR; percentage potentiation over the response to 0.1 mM ACh alone) [%]
CCN1C[C@]2(COC(=O)c3ccccc3N3C(=O)C[C@H](C)C3=O)CC[C@H](OC)[C@@]34[C@@H]5C[C@H]6[C@H](OC)[C@@H]5[C@](O)(C[C@@H]6OC)[C@@](O)([C@@H](OC)[C@H]23)[C@@H]14 [methyllycaconitine, reference compound]	abolishes response						
Cc1cn(-c2ccc(C(F)(F)F)cc2)/c(=N/C(=O)N2CCCC2)s1 [Example 18, N-[(2Z)-5-methyl-3-[4-(trifluoromethyl)phenyl]-1,3-thiazol-2(3H)-ylidene]pyrrolidine-1-carboxamide]		1.4	111	3.4	110	4	300
